Source: publication PMC12135508 (Antimicrobial Agents and Chemotherapy, 2025)
Where two headings read alike, the source gives them in different places. Marks after values point to notes of the source that are not given here.

Experiments:
[1] = tested on: C[C@@H](O)[C@H]1C(=O)N2C(C(=O)O)=C(SCCN=CN)C[C@H]12; test: purified protein, by the assay type; settings: other: KPC-2, 50 mM sodium phosphate pH 7.0, room temperature
[2] = tested on: CO/N=C(\C(=O)N[C@@H]1C(=O)N2C(C(=O)[O-])=C(C[N+]3(C)CCCC3)CS[C@H]12)c1csc(N)n1; test: purified protein, by the assay type; settings: other: KPC-2, 50 mM sodium phosphate pH 7.0, room temperature
[3] = tested on: C[C@@H](O)[C@H]1C(=O)N2C(C(=O)O)=C(S[C@@H]3CN[C@H](C(=O)N(C)C)C3)[C@H](C)[C@H]12; test: purified protein, by the assay type; settings: other: KPC-2, 50 mM sodium phosphate pH 7.0, room temperature
[4] = tested on: CC(=O)OCC1=C(C(=O)O)N2C(=O)[C@@H](NC(=O)Cc3cccs3)[C@H]2SC1; test: purified protein, by the assay type; settings: other: KPC-2, 50 mM sodium phosphate pH 7.0, room temperature
[5] = tested on: CO/N=C(\C(=O)N[C@@H]1C(=O)N2C(C(=O)O)=C(COC(N)=O)CS[C@H]12)c1ccco1; test: purified protein, by the assay type; settings: other: KPC-2, 50 mM sodium phosphate pH 7.0, room temperature
[6] = tested on: CO/N=C(\C(=O)N[C@@H]1C(=O)N2C(C(=O)O)=C(CSc3nc(=O)c(=O)[nH]n3C)CS[C@H]12)c1csc(N)n1; test: purified protein, by the assay type; settings: other: KPC-2; determined with nitrocefin as reporter in competitive assays; pH 7.0
[7] = tested on: CC(C)(O/N=C(\C(=O)N[C@@H]1C(=O)N2C(C(=O)[O-])=C(C[n+]3ccccc3)CS[C@H]12)c1csc(N)n1)C(=O)O; test: purified protein, by the assay type; settings: other: KPC-2; determined with nitrocefin as reporter in competitive assays; pH 7.0
[8] = tested on: CCN1CCN(C(=O)N[C@@H](C(=O)N[C@@H]2C(=O)N3[C@@H]2SC(C)(C)[C@@H]3C(=O)O)c2ccccc2)C(=O)C1=O; test: purified protein, by the assay type; settings: other: KPC-2, 50 mM sodium phosphate pH 7.0, room temperature
E. coli TOP10F´/pMBLe = test: MIC by broth microdilution, empty-vector control clone; assay type: cell-based; settings: Escherichia coli; E. coli TOP10F´ with empty vector pMBLe; 50 µM IPTG; combinations given as β-lactam/inhibitor; read-out: Minimum inhibitory concentration
From the text: (§1) The KPC-2 gene was recovered from a clinical Klebsiella pneumoniae strain previously characterized in our laboratory ([46]). E. coli TOP10 F´ (Invitrogen, USA) and E. coli BL21(DE3) (Novagen, Germany) were used as hosts for transformation experiments, to obtain recombinant clones for antimicrobial susceptibility and overexpression assays, respectively. Escherichia coli ATCC 25922 and ATCC 35218 were used as control strains for antimicrobial susceptibility assays.
(§2) Minimum inhibitory concentrations (MICs) of different β-lactams and combinations with β-lactamase inhibitors were determined by an adaptation of the broth microdilution method by the CLSI ([49]), as follows. As we used E. coli recombinant clones harboring pMBLe/bla constructions, where protein production is regulated by isopropyl-β-D-thiogalactoside (IPTG) induction ([47]), antimicrobial susceptibility assays were performed using Mueller Hinton broth supplemented with 50 µM IPTG. Also, as control strains we included the E. coli Top10F’ (used as recipient strain in transformation assays), and the same strain transformed with the empty vector pMBLe, to have a comparison under the same isogenic background.

E. coli TOP10F´ = test: microbe, parasite or virus in culture; assay type: cell-based; settings: Escherichia coli, read-out: Minimum inhibitory concentration
From the text: as §1, §2

KPC-2 [9] = settings: ceftazidime as reporter substrate, ref 20 Oueslati et al.; cited from earlier work
KPC-14 [10] = tested on: KPC-14; parameters: method as in earlier work; settings: ref 20 Oueslati et al., cited from earlier work
KPC-14 [11] = target: T1, KPC-14 (Klebsiella pneumoniae, UniProt Q9F663, DEL241-242); test: Clavulanic acid inhibition and hydrolysis, KPC-14; assay type: biochemical
T1 construct: amplify the entire blaKPC-14 gene with the cloning primers; made in house; host or cells: E. coli BL21(DE3), pET24a(+)
Method: (§3) To assess if KPC-14 shares the same behavior, KI app and kinact values for clavulanic acid of both enzymes were determined as previously reported ([32], [33]). The initial velocity (V0) of clavulanic acid hydrolysis was monitored at 235 nm ([32]), mixing an inhibitor concentration five times the KM determined and 100 nM of enzyme. V0 obtained under this condition was considered the Vmax and was used to determine the kcat for clavulanic acid.

KPC-2 [12] = target: T2, KPC-2 (Klebsiella pneumoniae, UniProt Q9F663); test: Clavulanic acid inhibition and hydrolysis, KPC-2; assay type: biochemical
T2 construct: The complete blaKPC-2 gene was amplified from whole DNA; made in house; host or cells: E. coli BL21(DE3), pET24a(+)
Method: as §3

KPC-14 [13] = target: T1, KPC-14; test: Steady-state kinetics of β-lactam hydrolysis by KPC-14; assay type: biochemical; settings: for kcat / Km: KPC-14
From the text: (Eq. 1) v=(Vmax×[S]) / (Km+[S])
(Eq. 2) KI=KI obs / (1+[NCF]/KM(NCF))

[14] = tested on: E. coli TOP10F´ pMBLe/KPC-2; test: MIC by broth microdilution, KPC-2-producing recombinant clone; assay type: cell-based; settings: Escherichia coli, 50 µM IPTG, combinations given as β-lactam/inhibitor, read-out: Minimum inhibitory concentration
Method: (§4) Ligation mixtures were transformed in chemically competent E. coli TOP10F´ cells, and recombinant clones were selected in Lysogeny broth (LB) agar supplemented with 20 µg/mL gentamicin or 30 µg/mL kanamycin, depending on whether the constructions were obtained in pMBLe or pET24a(+) vectors, respectively. Recombinant plasmids of the selected clones were extracted and sequenced to verify the identity of bla genes and their proper insertion.
(§5) Minimum inhibitory concentrations (MICs) of different β-lactams and combinations with β-lactamase inhibitors were determined by an adaptation of the broth microdilution method by the CLSI ([49]), as follows. As we used E. coli recombinant clones harboring pMBLe/bla constructions, where protein production is regulated by isopropyl-β-D-thiogalactoside (IPTG) induction ([47]), antimicrobial susceptibility assays were performed using Mueller Hinton broth supplemented with 50 µM IPTG.

[15] = tested on: E. coli TOP10F´ pMBLe/KPC-14; test: MIC by broth microdilution, KPC-14-producing recombinant clone; assay type: cell-based, Escherichia coli; settings: for MIC: Escherichia coli, E. coli TOP10F´ pMBLe/KPC-14, 50 µM IPTG, combinations given as β-lactam/inhibitor, read-out: Minimum inhibitory concentration; for MIC interpretation in KPC-14 recombinant clone: recombinant clone harboring KPC-14
Method: as §4, §5

[16] = E. coli TOP10F´ recipient strain, Mueller Hinton broth + 50 µM IPTG, combinations given as β-lactam/inhibitor
[17] = 50 mM sodium phosphate pH 7.0, room temperature
[18] = determined with nitrocefin as reporter in competitive assays

T2 sequence (Q9F663 25-293 limits assumed): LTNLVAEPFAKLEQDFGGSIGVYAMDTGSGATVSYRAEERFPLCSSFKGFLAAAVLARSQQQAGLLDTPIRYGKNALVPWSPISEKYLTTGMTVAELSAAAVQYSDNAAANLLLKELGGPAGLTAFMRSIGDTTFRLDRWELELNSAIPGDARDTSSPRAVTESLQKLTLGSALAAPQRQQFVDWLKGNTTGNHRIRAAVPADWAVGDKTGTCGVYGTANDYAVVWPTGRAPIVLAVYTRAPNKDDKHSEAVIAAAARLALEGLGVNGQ
T1 sequence (Q9F663 25-240, added parts left off, stated change not applied): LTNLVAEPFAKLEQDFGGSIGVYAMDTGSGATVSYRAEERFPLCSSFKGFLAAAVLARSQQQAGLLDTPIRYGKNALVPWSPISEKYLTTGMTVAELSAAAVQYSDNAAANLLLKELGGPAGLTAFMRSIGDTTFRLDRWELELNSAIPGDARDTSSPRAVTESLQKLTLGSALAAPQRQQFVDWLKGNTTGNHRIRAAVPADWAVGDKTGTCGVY

KPC-2 (Klebsiella pneumoniae)
Km [1]: 120 ± 9 µM
kcat [1]: 15 ± 0.4 s⁻¹
kcat/Km [1]: 120000 ± 10000 M⁻¹ s⁻¹
Km [2]: 59 ± 5 µM
kcat [2]: 1.31 ± 0.04 s⁻¹
Km [3]: 31 ± 2 µM
kcat [3]: 2.85 ± 0.06 s⁻¹
kcat/Km [3]: 91000 ± 6000 M⁻¹ s⁻¹
Km [4]: 159 ± 15 µM
kcat [4]: 56 ± 2 s⁻¹
kcat/Km [4]: 360000 ± 40000 M⁻¹ s⁻¹
Km [5]: 319 ± 48 µM
kcat [5]: 85 ± 8 s⁻¹
kcat/Km [5]: 270000 ± 50000 M⁻¹ s⁻¹
Km [6]: 267 ± 29^a µM
kcat [6]: 52 ± 7 s⁻¹
kcat/Km [6]: 194000 ± 6000 M⁻¹ s⁻¹
Km [7]: 1,319 ± 145^a µM
kcat [7]: 0.9 ± 0.1 s⁻¹
kcat/Km [7]: 830 ± 40 M⁻¹ s⁻¹
Km [8]: 97 ± 12 µM
kcat [8]: 29 ± 1 s⁻¹
kcat/Km [8]: 300000 ± 40000 M⁻¹ s⁻¹

C[C@H]1[C@H](NC(=O)/C(=N\OC(C)(C)C(=O)O)c2csc(N)n2)C(=O)N1S(=O)(=O)O [Aztreonam]
MIC (E. coli TOP10F´/pMBLe): ≤ 0.25 µg/mL
MIC (E. coli TOP10F´; [16]): ≤ 0.25 µg/mL

NC(=O)[C@@H]1CC[C@@H]2CN1C(=O)N2OS(=O)(=O)O [Avibactam, avibactam]
IC50 (KPC-14 [10]; KPC-14, ceftazidime as reporter substrate): 107 nM

CO/N=C(\C(=O)N[C@@H]1C(=O)N2C(C(=O)O)=C(CSc3nc(=O)c(=O)[nH]n3C)CS[C@H]12)c1csc(N)n1 [Ceftriaxone]
MIC (E. coli TOP10F´/pMBLe): ≤ 0.25 µg/mL
MIC (E. coli TOP10F´): ≤ 0.25 µg/mL

O=C(O)[C@H]1/C(=C/CO)O[C@@H]2CC(=O)N21 [clavulanic acid]
hydrolysis of inhibitor monitored at 235 nm (KPC-14 [11]; inhibitor five times above Ki app, 100 nM enzyme): No hydrolytic activity was detected
Ki (KPC-14 [11]; nitrocefin competition, read-out: Ki app): 8500 ± 1100 nM
concentration sufficient for complete inhibition of enzyme activity (KPC-14 [11]; nitrocefin hydrolysis time courses): 16 µM
inhibition of nitrocefin hydrolysis at 300 µM inhibitor (KPC-2 [12]; 300 µM clavulanic acid): residual hydrolytic activity
kcat (turnover of inhibitor hydrolysis) (KPC-2 [12]; 235 nm, inhibitor five times above KM, 100 nM enzyme): 11.60 ± 0.01 s⁻¹
KM (Ki app expressed as KM) (KPC-2 [12]; nitrocefin competition): 80000 ± 8000 nM

CC1(C)S[C@@H]2[C@H](NC(=O)[C@H](N)c3ccccc3)C(=O)N2[C@H]1C(=O)O [Ampicillin]
kcat/KM fold lower, KPC-14 vs KPC-2 (KPC-14 [13]): 24 fold
kcat (KPC-14 [13]): 0.83 ± 0.02 s⁻¹
Km (KPC-14 [13]; [17]): 95 ± 10 µM
MIC [14]: 1020 µg/mL
MIC (E. coli TOP10F´; [16]): 2 µg/mL
MIC [15]: 64 µg/mL

CC(=O)OCC1=C(C(=O)O)N2C(=O)[C@@H](NC(=O)Cc3cccs3)[C@H]2SC1 [Cephalothin]
MIC [14]: 256 µg/mL
MIC (E. coli TOP10F´; [16]): 8 µg/mL
MIC [15]: 64 µg/mL

C[C@@H](O)[C@H]1C(=O)N2C(C(=O)O)=C(S[C@@H]3CN[C@H](C(=O)N(C)C)C3)[C@H](C)[C@H]12 [Meropenem]
MIC (E. coli TOP10F´/pMBLe): ≤ 0.03 µg/mL
kcat/KM fold lower, KPC-14 vs KPC-2 (KPC-14 [13]): 1,000 fold
kcat (KPC-14 [13]): (8.8000 ± 0.0001) × 10^−4 s^−1
Km (KPC-14 [13]; [18]): 10 ± 1 µM
MIC [14]: 1 µg/mL
MIC (E. coli TOP10F´; [16]): ≤ 0.03 µg/mL
MIC [15]: ≤ 0.03 µg/mL
MIC interpretation in KPC-14 recombinant clone [15]: within the susceptibility range

C[C@@H](O)[C@H]1C(=O)N2C(C(=O)O)=C(SCCN=CN)C[C@H]12 [Imipenem]
MIC (E. coli TOP10F´/pMBLe): 0.12 µg/mL
kcat/KM fold lower, KPC-14 vs KPC-2 (KPC-14 [13]): 11 fold
kcat (KPC-14 [13]): (5.93 ± 0.02) × 10^−3 s^−1
Km (KPC-14 [13]; [18]): 0.55 ± 0.02 µM
turnover (kcat) fold decrease, KPC-14 vs KPC-2 (KPC-14 [13]; this work): 2,500 fold
turnover (kcat) fold reduction, KPC-14 (KPC-14 [10]): 1,000 fold
MIC [14]: 2 µg/mL
MIC (E. coli TOP10F´; [16]): 0.12 µg/mL
MIC [15]: 0.25 µg/mL
MIC interpretation in KPC-14 recombinant clone [15]: within the susceptibility range

CC(C)(O/N=C(\C(=O)N[C@@H]1C(=O)N2C(C(=O)[O-])=C(C[n+]3ccccc3)CS[C@H]12)c1csc(N)n1)C(=O)O [Ceftazidime]
MIC [14]: 2 µg/mL
MIC (E. coli TOP10F´; [16]): 0.12 µg/mL
MIC [15]: 32 µg/mL

CO/N=C(\C(=O)N[C@@H]1C(=O)N2C(C(=O)[O-])=C(C[N+]3(C)CCCC3)CS[C@H]12)c1csc(N)n1 [Cefepime]
MIC (E. coli TOP10F´/pMBLe): ≤ 0.25 µg/mL
hydrolytic efficiency (kcat/KM) fold increase, KPC-14 vs KPC-2 (KPC-14 [13]): 3 fold
kcat (KPC-14 [13]): 0.61 ± 0.03 s⁻¹
Km (KPC-14 [13]; [17]): 7 ± 1 µM
MIC [14]: 1 µg/mL
MIC (E. coli TOP10F´; [16]): ≤ 0.25 µg/mL
MIC [15]: 1 µg/mL
